According to patent US6613718B2, “Aryl ether derivatives and processes for their preparation and herbicidal and desiccant compositions containing them” (Ishihara Sangyo Kaisha, Ltd., priority 2001, dated 2003):

What was measured:
Type in all cases: in vivo
Conditions in all cases: 14 days after application
[1] = test system: field corn (Zea mays L., var. Dekalb 535, CORN); test: Pre-emerge greenhouse screening, crop safety (phytotoxicity rating)
Description: (§1) A standard greenhouse herbicide activity screening system was used to evaluate the herbicidal efficacy and crop safety of these test compounds. Seven broadleaf weed species including redroot pigweed (Amaranthus retroflexus, AMARE), velvetleaf (Abutilon theophrasti, ABUTH), sicklepod (Cassia obtusifolia, CASOB), ivyleaf morningglory (Ipomoea hederacea, IPOHE), lambsquarters (Chenopodium album, CHEAL), common ragweed (Ambrosia artemisiifolia L., AMBEL), and cocklebur (Xanthium strumarium, XANST) were used as test species. Four grass weed species including green foxtail (Setaria viridis, SETVI), barnyardgrass (Echinochloa crus-galli, ECHCG), johnsongrass (Sorghum halepense, SORHA), and large crabgrass (Digitaria sanguinalis, DIGSA) were also used. In addition, three crop species, field corn (Zea mays L., var. Dekalb 535, CORN), soybean (Glycine max L., var. Pella 86, SOY), and upland rice (Oryza sp., var.Tebonnet, RICE) were included.
(§2) All plants were grown in 10 cm square plastic pots which were filled with a sandy loam soil mix. For pre-emerge tests, seeds were planted one day prior to application of the test compounds. For post-emerge tests, seeds were planted 8-21 days prior to the test to allow emergence and good foliage development prior to application of the test substances. At the time of the post-emerge application, plants of all species were usually at the 2-3 leaf stage of development.
(§3) All test compounds were dissolved in acetone and applied to the test units in a volume of 187 1/ha. Test materials were applied at rates ranging from 15 g ai/ha to 1000 g ai/ha using a track sprayer equipped with a TJ8001E even flow flat fan spray nozzle. Plants were arranged on a shelf so that the top of the canopy (post-emerge) or top of the soil surface (pre-emerge) was 40-45 cm below the nozzle. Pressurized air was used to force the test solution through the nozzle as it was mechanically advanced (via electrically driven chain drive) over the top of all test plants/pots. This application simulates a typical commercial field herbicide application.
(§4) In the post-emerge test, a commercial non-ionic surfactant was also included (0.25% v/v) to enhance wetting of the leaf surfaces of target plants. Immediately after application, test units of the pre-emerge applications were watered at the soil surface to incorporate the test materials. Subsequently, these test units were bottom-watered. Post-emerge test units were always bottom-watered.
(§5) At 14 days after application of the test materials, phytotoxicity ratings were recorded. A rating scale of 0-100 was used as previously described in Research Methods in Weed Science, 2nd edition, B. Truelove, Ed., Southern Weed Science Society, Auburn University, Auburn, Ala., 1977. Briefly, “0” corresponds to no damage and “100” corresponds to complete death of all plants in the test unit. This scale was used both to determine efficacy against weed species and damage to crop species. Herbicide activity data for various compounds of this invention, which are shown by compound No. in Tables I-VI, are shown in Tables VIII-IX.

[2] = test system: soybean (Glycine max L., var. Pella 86, SOY); test: as above
Description: as §1, §2, §3, §4, §5

[3] = test system: upland rice (Oryza sp., var.Tebonnet, RICE); test: as above
Description: as §1, §2, §3, §4, §5

[4] = test system: barnyardgrass (Echinochloa crus-galli, ECHCG); test: Post-emerge greenhouse herbicide activity screening, phytotoxicity rating
Description: as §1, §2, §3, §4, §5

[5] = test system: green foxtail (Setaria viridis, SETVI); test: as above
Description: as §1, §2, §3, §4, §5

[6] = test system: johnsongrass (Sorghum halepense, SORHA); test: as above
Description: as §1, §2, §3, §4, §5

[7] = test system: sicklepod (Cassia obtusifolia, CASOB); test: as above
Description: as §1, §2, §3, §4, §5

[8] = test system: common ragweed (Ambrosia artemisiifolia L., AMBEL); test: as above
Description: as §1, §2, §3, §4, §5

[9] = test system: large crabgrass (Digitaria sanguinalis, DIGSA); test: as above
Description: as §1, §2, §3, §4, §5

[10] = test system: lambsquarters (Chenopodium album, CHEAL); test: as above
Description: as §1, §2, §3, §4, §5

[11] = test system: redroot pigweed (Amaranthus retroflexus, AMARE); test: as above
Description: as §1, §2, §3, §4, §5

[12] = test system: ivyleaf morningglory (Ipomoea hederacea, IPOHE); test: as above
Description: as §1, §2, §3, §4, §5

[13] = test system: velvetleaf (Abutilon theophrasti, ABUTH); test: as above
Description: as §1, §2, §3, §4, §5

[14] = test system: barnyardgrass (Echinochloa crus-galli, ECHCG); test: Pre-emerge greenhouse herbicide activity screening, phytotoxicity rating
Description: as §1, §2, §3, §4, §5

[15] = test system: green foxtail (Setaria viridis, SETVI); test: as above
Description: as §1, §2, §3, §4, §5

[16] = test system: johnsongrass (Sorghum halepense, SORHA); test: as above
Description: as §1, §2, §3, §4, §5

[17] = test system: sicklepod (Cassia obtusifolia, CASOB); test: as above
Description: as §1, §2, §3, §4, §5

[18] = test system: common ragweed (Ambrosia artemisiifolia L., AMBEL); test: as above
Description: as §1, §2, §3, §4, §5

[19] = test system: large crabgrass (Digitaria sanguinalis, DIGSA); test: as above
Description: as §1, §2, §3, §4, §5

[20] = test system: lambsquarters (Chenopodium album, CHEAL); test: as above
Description: as §1, §2, §3, §4, §5

[21] = test system: redroot pigweed (Amaranthus retroflexus, AMARE); test: as above
Description: as §1, §2, §3, §4, §5

[22] = test system: ivyleaf morningglory (Ipomoea hederacea, IPOHE); test: as above
Description: as §1, §2, §3, §4, §5

[23] = test system: velvetleaf (Abutilon theophrasti, ABUTH); test: as above
Description: as §1, §2, §3, §4, §5

[24] = test system: field corn (Zea mays L., var. Dekalb 535, CORN); test: Post-emerge greenhouse screening, crop safety / corn selectivity (phytotoxicity rating)
Description: as §1, §2, §3, §4, §5

[25] = test system: soybean (Glycine max L., var. Pella 86, SOY); test: Post-emerge greenhouse screening, crop safety (phytotoxicity rating)
Description: as §1, §2, §3, §4, §5

[26] = test system: upland rice (Oryza sp., var.Tebonnet, RICE); test: as above
Description: as §1, §2, §3, §4, §5

Cn1c(C(F)(F)F)cc(=O)n(-c2cc(Oc3ccccc3O)c(C#N)cc2F)c1=S [Compound 1-70]
CORN crop damage, phytotoxicity rating (0-100 scale) ([1]; 125 g ai/ha): 15 | CORN crop damage, phytotoxicity rating (0-100 scale) ([1]; 250 g ai/ha): 15 | SOY crop damage, phytotoxicity rating (0-100 scale) ([2]; 125 g ai/ha): 30 | SOY crop damage, phytotoxicity rating (0-100 scale) ([2]; 250 g ai/ha): 80 | RICE crop damage, phytotoxicity rating (0-100 scale) ([3]; 125 g ai/ha): 50 | RICE crop damage, phytotoxicity rating (0-100 scale) ([3]; 250 g ai/ha): 55 | ECHCG phytotoxicity rating (0-100 scale) ([4]; 125 g ai/ha): 55 | ECHCG phytotoxicity rating (0-100 scale) ([4]; 250 g ai/ha): 80 | SETVI phytotoxicity rating (0-100 scale) ([5]; 125 g ai/ha): 65 | SETVI phytotoxicity rating (0-100 scale) ([5]; 250 g ai/ha): 75 | SORHA phytotoxicity rating (0-100 scale) ([6]; 125 g ai/ha): 0 | SORHA phytotoxicity rating (0-100 scale) ([6]; 250 g ai/ha): 25 | CASOB phytotoxicity rating (0-100 scale) ([7]; 125 g ai/ha): 65 | CASOB phytotoxicity rating (0-100 scale) ([7]; 250 g ai/ha): 65 | AMBEL phytotoxicity rating (0-100 scale) ([8]; 125 g ai/ha): 60 | AMBEL phytotoxicity rating (0-100 scale) ([8]; 250 g ai/ha): 65 | DIGSA phytotoxicity rating (0-100 scale) ([9]; 125 g ai/ha): 15 | DIGSA phytotoxicity rating (0-100 scale) ([9]; 250 g ai/ha): 30 | CHEAL phytotoxicity rating (0-100 scale) ([10]; 125 g ai/ha): 100 | CHEAL phytotoxicity rating (0-100 scale) ([10]; 250 g ai/ha): 100 | AMARE phytotoxicity rating (0-100 scale) ([11]; 125 g ai/ha): 100 | AMARE phytotoxicity rating (0-100 scale) ([11]; 250 g ai/ha): 100 | IPOHE phytotoxicity rating (0-100 scale) ([12]; 125 g ai/ha): 99 | IPOHE phytotoxicity rating (0-100 scale) ([12]; 250 g ai/ha): 99 | ABUTH phytotoxicity rating (0-100 scale) ([13]; 125 g ai/ha): 100 | ABUTH phytotoxicity rating (0-100 scale) ([13]; 250 g ai/ha): 100 | ECHCG phytotoxicity rating (0-100 scale) ([14]; 125 g ai/ha): 85 | ECHCG phytotoxicity rating (0-100 scale) ([14]; 250 g ai/ha): 95 | SETVI phytotoxicity rating (0-100 scale) ([15]; 125 g ai/ha): 75 | SETVI phytotoxicity rating (0-100 scale) ([15]; 250 g ai/ha): 100 | SORHA phytotoxicity rating (0-100 scale) ([16]; 125 g ai/ha): 65 | SORHA phytotoxicity rating (0-100 scale) ([16]; 250 g ai/ha): 99 | CASOB phytotoxicity rating (0-100 scale) ([17]; 125 g ai/ha): 65 | CASOB phytotoxicity rating (0-100 scale) ([17]; 250 g ai/ha): 85 | AMBEL phytotoxicity rating (0-100 scale) ([18]; 125 g ai/ha): 90 | AMBEL phytotoxicity rating (0-100 scale) ([18]; 250 g ai/ha): 99 | DIGSA phytotoxicity rating (0-100 scale) ([19]; 125 g ai/ha): 85 | DIGSA phytotoxicity rating (0-100 scale) ([19]; 250 g ai/ha): 99 | CHEAL phytotoxicity rating (0-100 scale) ([20]; 125 g ai/ha): 100 | CHEAL phytotoxicity rating (0-100 scale) ([20]; 250 g ai/ha): 100 | AMARE phytotoxicity rating (0-100 scale) ([21]; 125 g ai/ha): 100 | AMARE phytotoxicity rating (0-100 scale) ([21]; 250 g ai/ha): 100 | IPOHE phytotoxicity rating (0-100 scale) ([22]; 125 g ai/ha): 99 | IPOHE phytotoxicity rating (0-100 scale) ([22]; 250 g ai/ha): 99 | ABUTH phytotoxicity rating (0-100 scale) ([23]; 125 g ai/ha): 100 | ABUTH phytotoxicity rating (0-100 scale) ([23]; 250 g ai/ha): 100 | CORN crop damage, phytotoxicity rating (0-100 scale) ([24]; 125 g ai/ha): 0 | CORN crop damage, phytotoxicity rating (0-100 scale) ([24]; 250 g ai/ha): 0 | SOY crop damage, phytotoxicity rating (0-100 scale) ([25]; 125 g ai/ha): 30 | SOY crop damage, phytotoxicity rating (0-100 scale) ([25]; 250 g ai/ha): 65 | RICE crop damage, phytotoxicity rating (0-100 scale) ([26]; 125 g ai/ha): 0 | RICE crop damage, phytotoxicity rating (0-100 scale) ([26]; 250 g ai/ha): 0
